The text below walks through data of patent US20140256771A1, “COMPOUNDS THAT MODULATE INTRACELLULAR CALCIUM” (CalciMedica, Inc., priority 2011, published 2014).

For one test, the system named is RBL-2H3 cells. Put plainly: Fluorescence-based assay of store-operated calcium entry in RBL-2H3 cells. The conditions noted are these: thapsigargin store depletion, 50% inhibition of Upslope; for IC50: Rattus norvegicus, RBL-2H3, read-out: RBL-2H3 (IC50, μmol). The class given is cell-based, rat. Set-up: key to RBL-2H3 (IC50, μmol): A < 0.6 μmol; 0.6 μmol ≦ B ≦ 1.2 μmol; C > 1.2 μmol; — = no fit. The method, then: B. Fluorescence-based Assay of Store-Operated Calcium Entry in RBL-2H3Cells.
RBL-2H3 cells are obtained from ATCC and maintained in complete medium with 10% FBS at 37° C./6% CO2.
The day prior to performing the assay, RBL-2H3 cells are plated in 50 μL of complete medium in a 384 well plate. Cells are grown at 37° C./6% CO2 overnight and grow to 50-60% confluence by the next day. On the assay day, 1.5 μM Fluo-4-AM dye (Invitrogen) in complete medium is added and incubated for 1 hour at RT. Cells are washed twice in Ca^2+-free HBSS buffer and 35 μL Ca^2+-free HBSS buffer is added to each well. 10 μL of a test compound prepared in a Ca^2+-free HBSS solution at 4.5× of the desired concentration is added to a well and incubated for 5 minutes at RT. 10 μL of thapsigargin prepared in a Ca^2+-free HBSS solution at 5.5× of the desired concentration (5.5 uM) is added to each well and incubated for an additional 25 minutes. The initial baseline fluorescence signal is measured with a FLIPR^384 (Molecular Devices) plate reader. 5 μL of 12× calcium in HBSS (12 mM) is added and changes in cellular fluorescence are measured with the FLIPR^384 plate reader. In each well, the change in the fluorescent signal as a function of time due to calcium entry into the cell is determined by calculating the difference between the fluorescent signal measured 7 seconds after calcium addition and the initial baseline fluorescence signal at time zero (t=0). This parameter is designated Upslope. The IC50 value is calculated as the concentration at which 50% of the Upslope is inhibited.

In another test the target is T1, Orai1/STIM1 (Homo sapiens, UniProt Q96D31).
T1 construct: expressed in transfected cells; host or cells: HEK-293
In words: Fluorescence-based assay of store-operated calcium entry in Orai1/STIM1 stable cells. It is filed as cell-based. More on the design: key to Orai1/STIM1 (IC50, μmol): A < 0.6 μmol; 0.6 μmol ≦ B ≦ 1.2 μmol; C > 1.2 μmol; — = no fit. To be noted: Table iii, HEK-293 cells stably expressing human STIM1 and Orai1, 50% inhibition of Peak-Basal fluo-4 signal; for IC50: read-out: Orai1/STIM1 (IC50, μmol). The method, then: A. Fluorescence-based Assay of Store-Operated Calcium Entry in Orai1/STIM1 Stable Cells.
Cells stably expressing recombinant human STIM1 and Orai1 are generated by transfecting a human Orai1 expression plasmid (pcDNA3.1-Orai1-cmyc) into HEK-293 cells stably overexpressing human STIM1 (Roos et al. 2005 JCB 169(3): 435-445). Colonies of cells stably expressing both STIM1 and Orai1 proteins are selected and then subcloned by limiting dilution. Cells were cultured at 37° C./6% CO2 in complete medium with 10% FBS and appropriate selection markers.
The day prior to performing the assay Orai1/STIM1 stable cells are plated in 50 μL of complete medium at 90-95% confluence in a 384 well plate. Cells are grown at 37° C./6% CO2 overnight. On the day of the assay, 1.5 μM fluo-4-AM (Invitrogen) in complete medium is added to the cells, which are then incubated for 1 hour at RT. Cells are washed once in Ca^2+-free HBSS (Hank's buffered saline solution) and 35 μl of Ca^2+-free HBSS is added to each well. Test compounds are added to wells in a 10 μL Ca^2+-free HBSS solution, prepared at 4.5× the desired final concentration, and incubated for 30 minutes at RT. The initial baseline fluorescence signal is then measured with a FLIPR^384 (Molecular Devices) plate reader. Calcium entry is initiated by adding 5 μl of 10× CaCl2 (10 mM) in HBSS, and changes in cellular fluorescence are measured with the FLIPR^384 plate reader. In each well, the magnitude of the fluorescence signal as a result of calcium entry into the cell is determined by calculating the difference between the peak fluorescence signal measured after calcium addition and the initial baseline fluorescence signal (designated Peak-Basal). IC50 values are typically calculated as the concentration that inhibited 50% of the Peak-Basal signal (Table A).

The structures appear in SMILES notation. Where two headings read alike, the source gives them in different places.

T1 sequence (Q96D31 whole entry): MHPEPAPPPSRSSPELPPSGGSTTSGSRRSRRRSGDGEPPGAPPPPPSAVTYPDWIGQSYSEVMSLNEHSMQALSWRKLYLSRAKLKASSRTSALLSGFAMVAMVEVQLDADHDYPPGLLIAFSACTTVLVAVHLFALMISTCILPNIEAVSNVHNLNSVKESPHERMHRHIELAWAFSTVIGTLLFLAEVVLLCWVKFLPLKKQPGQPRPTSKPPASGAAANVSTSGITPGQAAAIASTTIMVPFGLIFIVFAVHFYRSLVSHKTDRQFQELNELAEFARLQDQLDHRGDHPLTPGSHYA

As to `Cn1nc(C(F)(F)F)cc1-c1ccc(NCc2c(F)cncc2F)cc1F`, the IC50 in the test with RBL-2H3 cells (Table iii) and on Orai1/STIM1 was less than 600 nM each time.

With `Cn1nc(C(F)(F)F)cc1-c1ccc(NCc2ccc(F)cc2F)cc1F`, the IC50 with RBL-2H3 cells (Table iii) and at Orai1/STIM1 was less than 600 nM throughout.

Turning to `Cn1nc(C(F)(F)F)cc1-c1c(F)cc(NCc2ccccc2F)cc1F`, in the test with RBL-2H3 cells (Table iii), the IC50 was less than 600 nM. At Orai1/STIM1, the “Orai1/STIM1 (IC50, μmol)” value was “Max inh. <50%”.

Take `Cn1nc(C(F)(F)F)cc1-c1c(F)cc(NCc2ccc(F)cc2F)cc1F`: the IC50 in the test with RBL-2H3 cells (Table iii) was less than 600 nM. Besides, on Orai1/STIM1, the “Orai1/STIM1 (IC50, μmol)” value is “—”.

For `Cc1cc2c(cc1-c1ccc(NCc3c(C)cccc3F)cc1F)OC(F)(F)O2`, the IC50 with RBL-2H3 cells (Table iii) is less than 600 nM. In addition, the “Orai1/STIM1 (IC50, μmol)” value on Orai1/STIM1 is reported as “Max inh. <50%”.

For the compound `Cc1nnsc1CNc1ccc(-n2nc(C(F)(F)F)cc2C)cc1`, the “RBL-2H3 (IC50, μmol)” value with RBL-2H3 cells (Table iii) is reported as “—”. The “Orai1/STIM1 (IC50, μmol)” value on Orai1/STIM1 is on record as “—”.

Consider `Cc1nc(C(F)(F)F)cn1-c1ccc(NCc2c(F)cc(F)cc2F)cc1F`, for which the IC50 with RBL-2H3 cells (Table iii) and at Orai1/STIM1 was less than 600 nM throughout.

In the case of `Cc1nc(C(F)(F)F)cn1-c1ccc(NCc2c(F)cncc2F)cc1F`, the IC50 in the test with RBL-2H3 cells (Table iii) and on Orai1/STIM1 was less than 600 nM throughout.

Consider `Cc1nc(C(F)(F)F)cn1-c1ccc(NCc2c(F)ccc(F)c2F)cc1F`, for which the IC50 in the test with RBL-2H3 cells (Table iii) and on Orai1/STIM1 was less than 600 nM in each case.

Take `Cc1nc(C(F)(F)F)cn1-c1ccc(NCc2ccccc2F)cc1`: the IC50 with RBL-2H3 cells (Table iii) and on Orai1/STIM1 was less than 600 nM throughout.

Regarding `Cc1nc(C(F)(F)F)cn1-c1ccc(NCc2c(F)cccc2F)cc1`, the IC50 with RBL-2H3 cells (Table iii) and on Orai1/STIM1 was less than 600 nM throughout.

Regarding `Cc1nc(C(F)(F)F)cn1-c1ccc(NCc2c(F)cc(F)cc2F)cc1`, the IC50 in the test on RBL-2H3 cells (Table iii) and on Orai1/STIM1 was less than 600 nM each time.

For `Cc1nc(C(F)(F)F)cn1-c1ccc(NCc2c(F)ccc(F)c2F)cc1`, the IC50 in the test on RBL-2H3 cells (Table iii) and at Orai1/STIM1 was less than 600 nM in each case.

Consider `Cc1nn(C(F)F)cc1-c1ccc(NCc2ccccc2F)cc1`, for which the IC50 in the test on RBL-2H3 cells (Table iii) is less than 600 nM; at Orai1/STIM1, 600 to 1200 nM.

Turning to `Cc1nn(C(F)F)cc1-c1ccc(NCc2c(F)cccc2F)cc1`, the IC50 in the test on RBL-2H3 cells (Table iii) and on Orai1/STIM1 was less than 600 nM throughout.

As to `Cc1nn(C(F)F)cc1-c1ccc(NCc2c(F)cc(F)cc2F)cc1`, the IC50 in the test on RBL-2H3 cells (Table iii) and on Orai1/STIM1 was less than 600 nM in each case.

As to `Cc1cccc(F)c1CNc1ccc(-c2cn(C(F)F)nc2C)cc1`, the IC50 in the test with RBL-2H3 cells (Table iii) and on Orai1/STIM1 was less than 600 nM in each case.

With `Cc1nn(C(F)F)cc1-c1ccc(NCc2c(F)ccc(F)c2F)cc1`, the IC50 with RBL-2H3 cells (Table iii) and on Orai1/STIM1 was less than 600 nM in each case.

Regarding `Cc1ccccc1CNc1ccc(-c2cn(C(F)F)nc2C)c(F)c1`, the figures for the IC50 in the test on RBL-2H3 cells (Table iii) and on Orai1/STIM1 were less than 600 nM and 600 to 1200 nM, respectively.

Consider `Cc1nn(C(F)F)cc1-c1ccc(NCc2ccccc2F)cc1F`, for which the IC50 with RBL-2H3 cells (Table iii) and at Orai1/STIM1 was less than 600 nM each time.

On to `Cc1cccc(F)c1CNc1ccc(-c2cn(C(F)F)nc2C)c(F)c1`, for which the IC50 in the test on RBL-2H3 cells (Table iii) and at Orai1/STIM1 was less than 600 nM in each case.

With `Cc1nn(C(F)F)cc1-c1ccc(NCc2c(F)cccc2F)cc1F`, the IC50 in the test on RBL-2H3 cells (Table iii) and on Orai1/STIM1 was less than 600 nM each time.

With `Cc1nn(C(F)F)cc1-c1ccc(NCc2c(F)cc(F)cc2F)cc1F`, the IC50 in the test with RBL-2H3 cells (Table iii) and at Orai1/STIM1 was less than 600 nM in each case.

On to `CCn1nc(C(F)(F)F)cc1-c1ccc(NCc2ccccc2F)cc1`, for which the IC50 with RBL-2H3 cells (Table iii) and at Orai1/STIM1 was less than 600 nM each time.

Turning to `CCn1nc(C(F)(F)F)cc1-c1ccc(NCc2c(F)cccc2F)cc1`, the IC50 with RBL-2H3 cells (Table iii) and at Orai1/STIM1 was less than 600 nM throughout.

Regarding `CCn1nc(C(F)(F)F)cc1-c1ccc(NCc2ccccc2F)cc1F`, the IC50 in the test on RBL-2H3 cells (Table iii) and on Orai1/STIM1 was less than 600 nM in each case.

Regarding `CCn1nc(C(F)(F)F)cc1-c1ccc(NCc2c(F)cccc2F)cc1F`, the IC50 is less than 600 nM in the test on RBL-2H3 cells (Table iii) and 600 to 1200 nM on Orai1/STIM1.

Turning to `Cc1ccccc1CNc1ccc(-c2nc(C(F)(F)F)sc2C)cc1`, the IC50 in the test with RBL-2H3 cells (Table iii) was less than 600 nM; on Orai1/STIM1 it was 600 to 1200 nM.

As to `O=C(Nc1ccc(-n2nc(C(F)(F)F)cc2C(F)(F)F)cc1)c1ccccc1F`, the IC50 with RBL-2H3 cells (Table iv) is less than 600 nM.
